Tests used:
[1] = target: hα6^R87C + hβ4 + hβ3^V9’S nAChR (Homo sapiens, UniProt P30926+Q15825, R87C); conditions: nicotine (100 μM), ACh (100 μM) or atropine (1000 μM)
Experimental: (§1) We planned to introduce identical amounts of cRNA, presumably producing equal amounts of each subunit protein, into oocytes largely due to lack of information about the levels of mRNA for each subunits that compose α6*-nAChRs in neurons or other cells. Concentrations of cRNAs for each nAChR α and β subunits (WT, mutant or variant) were adjusted to 500 ng μL^−1. We provisionally assumed that hα6 or its variants in association with hβ2 or hβ4 subunits would form complexes having 2:3 and/or 3:2 ratios of the indicated subunits and that oocytes also injected with WT or mutant form of β3 subunits (i.e., β3^V9’S) would express nAChR with 2:2:1 ratios of α:β:(β3 or β3^V9’S) subunits. For expression of binary nAChRs (i.e., two subunit containing nAChRs; α + β but not β3) cRNA mixtures were prepared by mixing 1 μL of cRNA for each subunit and an additional μL of RNAse free water (i.e., total volume 3 μL). Similarly for expression of ternary nAChRs [i.e., three subunit containing nAChRs; (α + β) + (β3 or β3^V9’S)] cRNA mixtures were prepared by mixing 1 μL of cRNA for each subunit. Several preparations of each mixture were prepared and stored at −80°C until further use. Injection of 138 nL of cRNA, out of 3 μL cRNA mixtures, into each oocyte would deliver ~23 ng of cRNA for each subunit whether binary or ternary nAChRs are expressed.
(§2) Two to 5 days after injection, oocytes were placed in a small-volume chamber and continuously perfused with OR2. The chamber was grounded through an agarose bridge. The oocytes were voltage-clamped at −70 mV (unless otherwise noted) to measure agonist or antagonist induced currents using Axoclamp 900A and pClamp 10.2 software (Molecular Devices, Sunnyvale, CA). The current signal was low-pass filtered at 10 Hz with the built-in low-pass Bessel filter in the Axoclamp 900A and digitized at 20 Hz with Axon Digidata1440A and pClamp10. […] Drugs (agonists and antagonists) were prepared daily in OR2. Drug was applied using a Valvelink 8.2 perfusion system (Automate scientific, Berkeley, CA). […] Then for the purpose of comparison electrophysiological recordings were performed in a given day in a given batch of oocytes following the same order of injections. […] All hβ4*-nAChR recordings were done in similar conditions to facilitate comparisons between hα6hβ4- and hα6hβ4hβ3-nAChRs. All electrophysiological measurements were conducted or checked in at least two batches of oocytes.

[2] = target: hα6hβ4hβ3^V9’S-nAChR (Homo sapiens, UniProt P30926+Q05901+Q15825, V273S); conditions: nicotine (100 μM), ACh (100 μM) or atropine (1000 μM); spontaneously opening channels
Experimental: as §1, §2

[3] = target: hα6^N171Khβ4β3^V9’S-nAChR (Homo sapiens, UniProt P30926+Q15825, N171K); conditions: nicotine (100 μM), ACh (100 μM) or atropine (1000 μM)
Experimental: as §1, §2

[4] = target: hα6^D57Nhβ4hβ3^V9’S-nAChR (Homo sapiens, UniProt P30926+Q15825, D57N); conditions: nicotine (100 μM), ACh (100 μM) or atropine (1000 μM)
Experimental: as §1, §2

[5] = target: hα6^S156Rhβ4hβ3^V9’S-nAChR (Homo sapiens, UniProt P30926+Q15825, S156R); conditions: nicotine (100 μM), ACh (100 μM) or atropine (1000 μM)
Experimental: as §1, §2

[6] = target: T1, hα6(R87C) + WT hβ2 + hβ3^V9’S nAChR (Homo sapiens, UniProt P17787+Q15825, R87C); experiment: Oocyte two-electrode voltage clamp; type: cell-based; conditions: ACh, nicotine or atropine; hβ2 type not specified
T1 construct: Full length capped mRNA (i.e., cRNA) was transcribed from linearized plasmids; expressed in transfected cells; host or cells: Xenopus laevis oocytes injected with cRNA
Experimental: as §1, §2
(§3) Raw data was collected and processed in part using pClamp 10.2 (Molecular Devices, Sunnyvale, CA), Origin 7.5 (OriginLab Corporation, Northampton, MA) and a spreadsheet (Excel; Microsoft, Bellevue, WA). Peak current amplitudes (Imax) are reported as mean ± SEM (for results from at least three oocytes, i.e., n = 3).

[7] = target: hα6(D199Y) + hβ4 + hβ3 nAChR (Homo sapiens, UniProt P30926+Q15825, D199Y); experiment: Oocyte two-electrode voltage clamp; type: cell-based
Experimental: as §1, §2, §3

[8] = target: T2, hα6(R96H) + hβ4 nAChR (Homo sapiens, UniProt P30926+Q15825, R96H); experiment: Oocyte two-electrode voltage clamp; type: cell-based; conditions: 1000 μM ACh; 1 μM atropine co-applied
T2 construct: Full length capped mRNA (i.e., cRNA) was transcribed from linearized plasmids; expressed in transfected cells; host or cells: Xenopus laevis oocytes injected with cRNA
Experimental: as §1, §2, §3

Sequence of hα6(D199Y) + hβ4 + hβ3 nAChR (Q15825 26-494 D199Y): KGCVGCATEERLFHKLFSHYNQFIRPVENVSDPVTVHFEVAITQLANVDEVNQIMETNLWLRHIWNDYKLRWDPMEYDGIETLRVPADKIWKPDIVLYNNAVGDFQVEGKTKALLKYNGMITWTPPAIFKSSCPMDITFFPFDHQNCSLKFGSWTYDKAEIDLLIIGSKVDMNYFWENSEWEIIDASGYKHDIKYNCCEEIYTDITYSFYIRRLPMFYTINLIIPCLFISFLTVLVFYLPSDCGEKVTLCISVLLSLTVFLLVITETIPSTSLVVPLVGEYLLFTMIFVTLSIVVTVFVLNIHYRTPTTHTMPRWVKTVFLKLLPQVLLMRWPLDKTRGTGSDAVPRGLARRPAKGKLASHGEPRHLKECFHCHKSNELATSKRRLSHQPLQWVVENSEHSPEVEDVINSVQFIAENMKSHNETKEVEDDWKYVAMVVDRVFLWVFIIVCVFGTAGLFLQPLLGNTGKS
Sequence of hα6(D199Y) + hβ4 + hβ3 nAChR (P30926 22-498): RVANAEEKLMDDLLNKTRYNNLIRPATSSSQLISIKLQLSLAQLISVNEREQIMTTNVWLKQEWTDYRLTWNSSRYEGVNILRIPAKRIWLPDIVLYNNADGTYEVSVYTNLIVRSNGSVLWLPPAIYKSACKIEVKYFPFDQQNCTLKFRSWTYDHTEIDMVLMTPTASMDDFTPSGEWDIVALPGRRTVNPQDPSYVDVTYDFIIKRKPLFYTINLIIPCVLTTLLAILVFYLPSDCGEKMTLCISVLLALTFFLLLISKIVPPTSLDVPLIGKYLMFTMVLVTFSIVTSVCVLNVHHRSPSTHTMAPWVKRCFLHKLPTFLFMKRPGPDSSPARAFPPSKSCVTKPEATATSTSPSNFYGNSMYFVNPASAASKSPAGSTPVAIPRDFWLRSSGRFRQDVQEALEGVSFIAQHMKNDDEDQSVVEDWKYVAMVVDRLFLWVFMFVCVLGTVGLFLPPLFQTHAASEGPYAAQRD
Sequence of hα6(D199Y) + hβ4 + hβ3 nAChR (Q05901 25-458 partner limits assumed): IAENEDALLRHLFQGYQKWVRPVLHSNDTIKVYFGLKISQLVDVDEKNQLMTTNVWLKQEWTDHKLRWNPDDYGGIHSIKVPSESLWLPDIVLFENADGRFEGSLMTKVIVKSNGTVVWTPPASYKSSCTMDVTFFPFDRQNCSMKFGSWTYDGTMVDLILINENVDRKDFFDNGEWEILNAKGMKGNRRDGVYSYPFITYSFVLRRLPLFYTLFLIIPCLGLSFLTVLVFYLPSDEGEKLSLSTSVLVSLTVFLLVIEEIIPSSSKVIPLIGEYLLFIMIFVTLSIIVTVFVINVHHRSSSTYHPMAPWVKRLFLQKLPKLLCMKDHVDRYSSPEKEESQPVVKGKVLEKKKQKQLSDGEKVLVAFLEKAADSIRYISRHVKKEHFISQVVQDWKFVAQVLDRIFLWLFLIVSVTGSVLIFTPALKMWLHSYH
Sequence of hα6^D57Nhβ4hβ3^V9’S-nAChR (Q15825 26-494 D57N): as the sequence (Q15825 26-494 D199Y) above, with D32N, Y174D counted along it
Sequence of hα6^D57Nhβ4hβ3^V9’S-nAChR (P30926 22-498): as the sequence (P30926 22-498) above
Sequence of hα6^D57Nhβ4hβ3^V9’S-nAChR (Q05901 25-458 V273S partner limits assumed): as the sequence (Q05901 25-458 partner limits assumed) above, with V249S counted along it
Sequence of hα6^S156Rhβ4hβ3^V9’S-nAChR (Q15825 26-494 S156R): as the sequence (Q15825 26-494 D199Y) above, with S131R, Y174D counted along it
Sequence of hα6^S156Rhβ4hβ3^V9’S-nAChR (P30926 22-498): as the sequence (P30926 22-498) above
Sequence of hα6^S156Rhβ4hβ3^V9’S-nAChR (Q05901 25-458 V273S partner limits assumed): as the sequence (Q05901 25-458 partner limits assumed) above, with V249S counted along it
T1 sequence (Q15825 26-494 R87C): as the sequence (Q15825 26-494 D199Y) above, with R62C, Y174D counted along it
T1 sequence (P17787 26-502): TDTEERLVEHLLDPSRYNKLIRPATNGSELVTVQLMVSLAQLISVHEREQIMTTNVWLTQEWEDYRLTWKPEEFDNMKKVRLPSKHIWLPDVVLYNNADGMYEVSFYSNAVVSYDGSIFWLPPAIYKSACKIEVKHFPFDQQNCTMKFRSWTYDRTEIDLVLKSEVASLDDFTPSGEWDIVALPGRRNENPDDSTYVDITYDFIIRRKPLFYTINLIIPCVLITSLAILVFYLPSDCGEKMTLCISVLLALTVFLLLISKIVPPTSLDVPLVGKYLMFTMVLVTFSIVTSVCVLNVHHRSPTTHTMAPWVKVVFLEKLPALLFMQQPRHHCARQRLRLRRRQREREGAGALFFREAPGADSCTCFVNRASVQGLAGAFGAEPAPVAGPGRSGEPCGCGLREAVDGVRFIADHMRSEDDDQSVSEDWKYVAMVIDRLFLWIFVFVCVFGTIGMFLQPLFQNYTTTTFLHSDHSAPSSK
T1 sequence (Q05901 25-458 V273S partner limits assumed): as the sequence (Q05901 25-458 partner limits assumed) above, with V249S counted along it
Sequence of hα6^R87C + hβ4 + hβ3^V9’S nAChR (Q15825 26-494 R87C): as the sequence (Q15825 26-494 D199Y) above, with R62C, Y174D counted along it
Sequence of hα6^R87C + hβ4 + hβ3^V9’S nAChR (P30926 22-498): as the sequence (P30926 22-498) above
Sequence of hα6^R87C + hβ4 + hβ3^V9’S nAChR (Q05901 25-458 V273S partner limits assumed): as the sequence (Q05901 25-458 partner limits assumed) above, with V249S counted along it
T2 sequence (Q15825 26-494 R96H): as the sequence (Q15825 26-494 D199Y) above, with R71H, Y174D counted along it
T2 sequence (P30926 22-498, stated change not applied): as the sequence (P30926 22-498) above
Sequence of hα6^N171Khβ4β3^V9’S-nAChR (Q15825 26-494 N171K): as the sequence (Q15825 26-494 D199Y) above, with N146K, Y174D counted along it
Sequence of hα6^N171Khβ4β3^V9’S-nAChR (P30926 22-498): as the sequence (P30926 22-498) above
Sequence of hα6^N171Khβ4β3^V9’S-nAChR (Q05901 25-458 V273S partner limits assumed): as the sequence (Q05901 25-458 partner limits assumed) above, with V249S counted along it
Sequence of hα6hβ4hβ3^V9’S-nAChR (Q15825 26-494): as the sequence (Q15825 26-494 D199Y) above, with Y174D counted along it
Sequence of hα6hβ4hβ3^V9’S-nAChR (P30926 22-498): as the sequence (P30926 22-498) above
Sequence of hα6hβ4hβ3^V9’S-nAChR (Q05901 22-458 V273S): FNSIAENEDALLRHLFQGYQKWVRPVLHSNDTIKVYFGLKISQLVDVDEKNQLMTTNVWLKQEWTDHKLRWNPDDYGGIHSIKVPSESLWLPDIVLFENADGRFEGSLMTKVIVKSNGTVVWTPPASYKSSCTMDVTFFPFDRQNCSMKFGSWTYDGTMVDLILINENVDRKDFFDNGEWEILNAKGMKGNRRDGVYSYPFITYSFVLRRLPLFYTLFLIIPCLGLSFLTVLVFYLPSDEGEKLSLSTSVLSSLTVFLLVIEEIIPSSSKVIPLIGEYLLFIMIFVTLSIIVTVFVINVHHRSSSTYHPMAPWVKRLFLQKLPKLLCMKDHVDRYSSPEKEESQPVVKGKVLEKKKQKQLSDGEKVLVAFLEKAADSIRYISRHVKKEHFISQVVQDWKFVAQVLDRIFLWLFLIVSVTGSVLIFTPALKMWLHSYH

## CC(=O)OCC[N+](C)(C)C [ACh, acetylcholine]
[1]
  current response: not obtained
[2]
  current response (direction): robust inward current
[3]
  current response (direction): outward reversible currents
[4]
  current response (direction): outward reversible currents
[5]
  current response (direction): outward reversible currents
[6]
  current response: not obtained
[7]
  nH ± SE (Hill coefficient): 1.1 ± 0.07
[7]; 1000 μM ACh, 1 μM atropine co-applied
  Mean Imax ± SE (nA): 494 ± 51 nA
[8]
  Mean Imax ± SE (nA): 31 ± 4 nA

From PMC4022547 (Molecular Brain, 2014)
